Test results reported in ChEMBL document CHEMBL4808169, “Discovery of Potent and Fast-Acting Antimalarial Bis-1,2,4-triazines” (J Med Chem, 2021).

How the values were obtained:
[1] = Kinetic solubility of compound at pH 2 by nephelometry; format: physicochemical; conditions: buffer, read-out: Kinetic_solubility
[2] = Half life in human liver microsomes in presence of NADPH by UPLC-MS analysis; format: ADME, Microsome
[3] = Apparent permeability across apical to basolateral side in human Caco2 cells measured over 120 mins by LC-MS analysis; format: ADME, cell-based; conditions: Caco-2
[4] = Intrinsic clearance in mouse liver microsomes in presence of NADPH by UPLC-MS analysis; format: ADME, Microsome
[5] = Cmax in Sprague-Dawley rat plasma at 10 mg/kg, po administered via gavage measured at 0.25 to 2.5 hrs by LC-MS analysis; format: ADME, organism-based; design: route oral, time upper 2.5 hrs, dose 10 mg/kg, time lower 0.25 hrs
[6] = Drug metabolism in Sprague-Dawley rat urine assessed as oxygenated metabolite M+16(1) formation at 10 mg/kg, po by high-resolution mass spectrometry; format: ADME, organism-based; conditions: in vivo
[7] = Tmax in Swiss mouse at 2.8 mg/kg, po measured up to 24 hrs by LC-MS analysis; format: ADME, organism-based; conditions: in vivo
[8] = Drug metabolism in Sprague-Dawley rat urine assessed as M-32 metabolite formation at 10 mg/kg, po by high-resolution mass spectrometry; format: ADME, organism-based; conditions: in vivo
[9] = Drug metabolism in mouse liver microsomes assessed as oxygenated metabolite M+16(2) formation by LC-MS/MS(CID) analysis; format: ADME, Microsome
[10] = Drug metabolism in Sprague-Dawley rat urine assessed as oxygenated metabolite M+16(1) formation at 3 mg/kg, iv by high-resolution mass spectrometry; format: ADME, organism-based; conditions: in vivo
Plasmodium falciparum [11] = experiment: microbe, parasite or virus in culture; conditions: 3D7, 72 h
Description: Antimalarial activity against Plasmodium falciparum 3D7 infected in human red blood cells after 72 hrs by DAPI-staining based assay

[12] = Drug metabolism in Sprague-Dawley rat feces assessed as N-methyl-2-(3'-propoxy-5,5'-bi(1,2,4-triazin)-3-yloxy)ethanamine formation at 10 mg/kg, po by high-resolution mass spectrometry; format: ADME, organism-based; conditions: in vivo
[13] = Drug metabolism in rat hepatocytes assessed as glucuronides/sulfates metabolite formation by LC-MS/MS(CID) analysis; format: ADME, cell-based, Hepatocyte
[14] = Drug metabolism in human hepatocytes assessed as N-methyl-2-(3'-propoxy-5,5'-bi(1,2,4-triazin)-3-yloxy)ethanamine formation by LC-MS/MS(CID) analysis; format: ADME, cell-based, Hepatocyte
[15] = Drug metabolism in mouse liver microsomes assessed as N-methyl-2-(3'-propoxy-5,5'-bi(1,2,4-triazin)-3-yloxy)ethanamine formation by LC-MS/MS(CID) analysis; format: ADME, Microsome
[16] = Apparent half life in Swiss mouse at 2.7 mg/kg, iv measured up to 24 hrs by LC-MS analysis; format: ADME, organism-based; conditions: in vivo, read-out: t1/2(app) (converted)
[17] = Drug metabolism in mouse liver microsomes assessed as 3'-propoxy-5,5'-bi(1,2,4-triazin)-3-ol formation by LC-MS/MS(CID) analysis; format: ADME, Microsome
[18] = Drug metabolism in mouse hepatocytes assessed as 3'-propoxy-5,5'-bi(1,2,4-triazin)-3-ol formation by LC-MS/MS(CID) analysis; format: ADME, cell-based, Hepatocyte
Cytochrome P450 1A2 = molecular target: T1, Cytochrome P450 1A2 (Homo sapiens, UniProt P05177); experiment: Inhibition of CYP1A2 in human liver microsomes assessed as reduction in […] activity by . high-pressure liquid chromatography-tandem mass spectrometry; format: ADME
T1 sequence (P05177 whole entry): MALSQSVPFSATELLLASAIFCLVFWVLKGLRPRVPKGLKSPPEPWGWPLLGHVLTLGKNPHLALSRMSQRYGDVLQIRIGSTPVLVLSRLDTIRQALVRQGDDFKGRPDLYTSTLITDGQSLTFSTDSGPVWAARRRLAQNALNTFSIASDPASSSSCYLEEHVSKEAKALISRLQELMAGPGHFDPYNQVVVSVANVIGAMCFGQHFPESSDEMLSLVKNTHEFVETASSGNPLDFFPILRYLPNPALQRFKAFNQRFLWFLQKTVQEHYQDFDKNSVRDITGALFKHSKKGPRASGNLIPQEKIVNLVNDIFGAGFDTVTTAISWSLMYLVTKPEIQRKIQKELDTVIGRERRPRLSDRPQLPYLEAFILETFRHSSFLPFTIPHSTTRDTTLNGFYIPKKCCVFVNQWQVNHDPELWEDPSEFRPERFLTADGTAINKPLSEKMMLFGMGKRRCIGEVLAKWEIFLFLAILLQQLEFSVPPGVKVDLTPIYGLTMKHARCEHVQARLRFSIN

Plasmodium falciparum [19] = experiment: Antiplasmodial activity against Plasmodium falciparum K1 by 3H-incorporation growth inhibition assay; format: functional, organism-based; conditions: pooled result: one value given for 11 cell lines, strains, targets or settings
[20] = Drug metabolism in mouse hepatocytes assessed as oxygenated metabolite M+16(2) formation by LC-MS/MS(CID) analysis; format: ADME, cell-based, Hepatocyte
[21] = Oral availability in Sprague-Dawley rat at 10 mg/kg measured up to 24 hrs by LC-MS analysis; format: ADME, organism-based; conditions: in vivo
[22] = AUC (0 to infinity) in Swiss mouse plasma at 27 mg/kg, po measured up to 24 hrs by LC-MS analysis
[23] = Drug metabolism in mouse liver microsomes assessed as oxygenated metabolite N-methyl-2-(3'-propoxy-5,5'-bi(1,2,4-triazin)-3-yloxy)ethanamine oxide formation by LC-MS/MS(CID) analysis; format: ADME, Microsome
[24] = Drug metabolism in rat hepatocytes assessed as oxygenated metabolite N-methyl-2-(3'-propoxy-5,5'-bi(1,2,4-triazin)-3-yloxy)ethanamine oxide formation by LC-MS/MS(CID) analysis; format: ADME, cell-based, Hepatocyte
[25] = Drug metabolism in human liver microsomes assessed as 3'-propoxy-5,5'-bi(1,2,4-triazin)-3-ol formation by LC-MS/MS(CID) analysis; format: ADME, Microsome
[26] = Apparent half life in Swiss mouse at 27 mg/kg, po measured up to 24 hrs by LC-MS analysis; conditions: in vivo, read-out: t1/2(app) (converted)
[27] = Drug metabolism in rat liver microsomes assessed as oxygenated metabolite M+16(2) formation by LC-MS/MS(CID) analysis; format: ADME, Microsome
[28] = Drug metabolism in Sprague-Dawley rat urine assessed as N-methyl-2-(3'-propoxy-5,5'-bi(1,2,4-triazin)-3-yloxy)ethanamine formation at 3 mg/kg, iv by high-resolution mass spectrometry; format: ADME, organism-based; conditions: in vivo
Cytochrome P450 3A4 = Cytochrome P450 3A4 (Homo sapiens, UniProt P08684); experiment: Inhibition of CYP3A4 in human liver microsomes assessed as reduction in midazolam 1-hydroxylase activity by . high-pressure liquid chromatography-tandem mass spectrometry; format: ADME
[29] = Intrinsic clearance in rat hepatocytes assessed per million cells by UPLC-MS analysis; format: ADME, cell-based, Hepatocyte; conditions: read-out: CLH
[30] = Drug metabolism in human liver microsomes assessed as N-methyl-2-(3'-propoxy-5,5'-bi(1,2,4-triazin)-3-yloxy)ethanamine formation by LC-MS/MS(CID) analysis; format: ADME, Microsome
[31] = Drug metabolism in mouse hepatocytes assessed as oxygenated metabolite N-methyl-2-(3'-propoxy-5,5'-bi(1,2,4-triazin)-3-yloxy)ethanamine oxide formation by LC-MS/MS(CID) analysis; format: ADME, cell-based, Hepatocyte
[32] = Intrinsic clearance in mouse hepatocytes assessed per million cells by UPLC-MS analysis; format: ADME, cell-based, Hepatocyte; conditions: read-out: CLH
[33] = Metabolic stability of compound in Swiss mouse blood assessed as parent compound loss measured over 4 hrs by LC-MS analysis; format: ADME, tissue-based; conditions: whole blood, read-out: Drug degradation

Sequence of Cytochrome P450 3A4 (P08684 whole entry): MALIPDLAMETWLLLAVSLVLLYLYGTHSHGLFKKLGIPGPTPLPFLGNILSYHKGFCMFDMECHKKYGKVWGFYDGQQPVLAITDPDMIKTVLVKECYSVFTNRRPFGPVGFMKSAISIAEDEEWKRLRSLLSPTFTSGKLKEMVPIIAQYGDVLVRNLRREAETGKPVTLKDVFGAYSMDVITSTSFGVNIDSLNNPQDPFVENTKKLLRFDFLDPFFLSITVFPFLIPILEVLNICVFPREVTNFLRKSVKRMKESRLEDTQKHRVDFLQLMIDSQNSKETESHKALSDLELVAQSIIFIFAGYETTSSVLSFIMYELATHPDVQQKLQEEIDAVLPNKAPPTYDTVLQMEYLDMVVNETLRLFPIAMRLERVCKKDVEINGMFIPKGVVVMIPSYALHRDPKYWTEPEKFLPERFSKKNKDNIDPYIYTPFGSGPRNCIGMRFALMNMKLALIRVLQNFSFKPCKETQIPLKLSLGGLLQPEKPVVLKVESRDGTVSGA

## CCCOc1nncc(-c2cnnc(OCCN(C)C)n2)n1
[1]
  solubility kinetic: > 100 µg/mL
[2]
  half-life: 3.82 h
[3]
  Papp A→B at 2 h: 40 ×10⁻⁶ cm/s
[4]
  microsomal CLint: 42 µL/min/mg
[5]
  Cmax: 89.4 nM
[6]
  Drug metabolism: Metabolite_Detected
[7]
  Tmax: 0.5 h
[8]
  Drug metabolism: Metabolite_Detected
[9]
  Drug metabolism: Metabolite_Detected
[10]
  Drug metabolism: Metabolite_Detected
Plasmodium falciparum [11]
  IC50: 31 nM
[12]
  Drug metabolism: Metabolite_Detected
[13]
  Drug metabolism: Metabolite_Notdetected
[14]
  Drug metabolism: Metabolite_Notdetected
[15]
  Drug metabolism: Metabolite_Detected
[16]
  half-life: 0.2 h
[17]
  Drug metabolism: Metabolite_Detected
[18]
  Drug metabolism: Metabolite_Detected
Cytochrome P450 1A2
  IC50: > 20000 nM
Plasmodium falciparum [19]
  IC50: 23 nM
[20]
  Drug metabolism: Metabolite_Detected
[21]
  bioavailability: 7.49%
[22]
  AUC(0-inf): 0.44 µM·h
[23]
  Drug metabolism: Metabolite_Detected
[24]
  Drug metabolism: Metabolite_Detected
[25]
  Drug metabolism: Metabolite_Notdetected
[26]
  half-life: 3 h
[27]
  Drug metabolism: Metabolite_Detected
[28]
  Drug metabolism: Metabolite_Detected
Cytochrome P450 3A4
  IC50: > 20000 nM
[29]
  hepatocyte CLint: 10 µL/min/1e6 cells
[30]
  Drug metabolism: Metabolite_Notdetected
[31]
  Drug metabolism: Metabolite_Detected
[32]
  hepatocyte CLint: 3.7 µL/min/1e6 cells
[33]
  metabolised at 4 h: 23%
